According to the Kinase Knowledgebase extract (Sharma et al. 2016):

target: MAPK14 (human) (UniProt Q16539); test: In vitro Inhibition of TNF-alpha Production in PBMC Cells; conditions: not given
Sequence (Q16539 whole entry, looked up): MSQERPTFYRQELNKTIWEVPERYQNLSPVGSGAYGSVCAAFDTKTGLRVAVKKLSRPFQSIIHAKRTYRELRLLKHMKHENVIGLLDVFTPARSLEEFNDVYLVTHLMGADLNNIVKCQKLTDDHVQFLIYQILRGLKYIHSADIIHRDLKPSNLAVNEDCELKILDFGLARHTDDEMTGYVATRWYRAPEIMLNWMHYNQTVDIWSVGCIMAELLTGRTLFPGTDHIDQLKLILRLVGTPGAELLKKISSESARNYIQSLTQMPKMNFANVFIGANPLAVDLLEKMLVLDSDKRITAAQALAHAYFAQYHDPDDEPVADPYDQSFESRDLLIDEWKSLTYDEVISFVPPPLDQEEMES

Row | SMILES | IC50 [nM]
1 | COC(=O)CN1CCN(c2c(-c3ccncc3)c(-c3ccc(F)cc3)c(C(=O)OC)n2C)CC1 | 5
2 | COC(=O)c1c(-c2ccc(F)cc2)c(-c2ccncc2)c(NC2CCN(Cc3ccccc3)CC2)n1C | 1310
3 | Cn1cc(-c2ccc(F)cc2)c(-c2ccncc2)c1N1CCNCC1 | 15
4 | COC(=O)C1Cn2cc(-c3ccncc3)c(-c3ccc(F)cc3)c2C1=O (centres undefined) | 29
5 | Cn1c(C#N)c(-c2ccc(F)cc2)c(-c2ccncc2)c1NCCN1CCOCC1 | 351
6 | Cn1cc(-c2ccncc2)c(-c2ccc(F)cc2)c1-c1ncc(-c2ccccc2)o1 | 1030
7 | COC(=O)c1c(-c2cccc(F)c2)c(-c2ccncc2)c(N2CCNCC2)n1C | 69
8 | CCCc1[nH]cc(-c2ccc(F)cc2)c1-c1ccnc(N[C@@H](C)COC)n1 | 86
9 | CCOC(=O)c1[nH]cc(-c2ccncc2)c1-c1cccc(C(F)(F)F)c1 | 96
10 | Fc1ccc(-c2cn3c(c2-c2ccncc2)CN(Cc2ccccc2)CC3)cc1 | 11
11 | COC(=O)c1c(-c2ccc(F)cc2)c(-c2ccncc2)cn1C(C)=O | 194
12 | CN(C)C(=O)c1c(-c2ccc(F)cc2)c(-c2ccncc2)c(Br)n1C | 301
13 | N#Cc1[nH]cc(-c2ccncc2)c1-c1ccc(F)cc1 | 47
14 | CON(C)C(=O)c1c(-c2ccc(F)cc2)c(-c2ccncc2)cn1C | 5840
15 | CCCN1CCN(c2c(-c3ccncc3)c(-c3ccc(F)cc3)c(C(=O)OC)n2C)CC1 | 901
16 | COC(=O)c1c(-c2ccncc2)c(-c2ccc(F)cc2)c(N(C)CCN2CCOCC2)n1C | 3510
17 | Cn1cc(-c2ccncc2)c(-c2ccc(F)cc2)c1C(=O)NCC(=O)c1ccccc1 | 157
18 | CC(=O)c1c(-c2ccc(F)cc2)c(-c2ccncc2)cn1C | 597
19 | CCN1CCCC1CNc1c(-c2ccncc2)c(-c2ccc(F)cc2)c(C(=O)OC)n1C (centres undefined) | 7750
20 | O=C1CCn2cc(-c3ccncc3)c(-c3ccc(F)cc3)c21 | 138
21 | COC(=O)c1c(-c2ccc(F)cc2)c(-c2ccncc2)c(N(C)CCN2CCOCC2)n1C | 38

Row | SMILES | IC50 [nM]
22 | CCCn1c(NCCN2CCOCC2)c(-c2ccncc2)c(-c2ccc(F)cc2)c1C(=O)OC | 589
23 | Cn1c(C(=O)c2ccccc2)c(-c2ccc(F)cc2)c(-c2ccncc2)c1N1CCNCC1 | 660
24 | COC(=O)c1c(-c2ccc(F)cc2)c(-c2ccncc2)c(NCCc2ccncc2)n1C | 145
25 | O=C1CCCn2cc(-c3ccncc3)c(-c3ccc(F)cc3)c21 | 150
26 | COC(=O)c1c(-c2ccc(F)cc2)c(-c2ccncc2)c(NCc2ccc(OC)cc2)n1C | 42
27 | COC(=O)c1c(-c2ccc(F)cc2)c(-c2ccncc2)c(Nc2ccc3c(c2)N(C(C)=O)CC3)n1C | 650
28 | CCn1c(C(=O)OC)c(-c2ccc(F)cc2)c(-c2ccncc2)c1N(C)CCN1CCOCC1 | 105
29 | OCCNCc1[nH]cc(-c2ccc(F)cc2)c1-c1ccncc1 | 148
30 | COC(=O)c1c(-c2ccc(F)cc2)c(-c2ccncc2)c(NCCN2CCSCC2)n1C | 69
31 | COC(=O)CCCn1c(NCCN2CCOCC2)c(-c2ccncc2)c(-c2ccc(F)cc2)c1C(=O)OC | 29
32 | COC(=O)c1c(-c2ccc(F)cc2)c(-c2ccncc2)c(Nc2cccc(NC(C)=O)c2)n1C | 21
33 | Fc1ccc(-c2c[nH]c(CNCc3ccccc3)c2-c2ccncc2)cc1 | 6
34 | COC(=O)CCn1c(C#CCCO)c(-c2ccncc2)c(-c2ccc(F)cc2)c1C(=O)OC | 5280
35 | COC(=O)c1c(-c2ccc(F)cc2)c(-c2ccncc2)c(N2CCN(C(=O)OC(C)(C)C)CC2)n1C | 4260
36 | Cn1cc(-c2ccncc2)c(-c2ccc(F)cc2)c1-c1nnco1 | 18
37 | COC(=O)c1c(-c2ccc(F)cc2)c(-c2ccncc2)cn1CCN1CCOCC1 | 10000
38 | CCOC(=O)c1c(-c2ccc(Br)cc2)c(-c2ccncc2)cn1C | 211
39 | COC(=O)c1c(-c2ccc(F)cc2)c(-c2ccncc2)c(N2CCN(CC3CCCCC3)CC2)n1C | 573
40 | COC(=O)c1c(-c2ccc(F)cc2)c(-c2ccncc2)c(N2CCN(C(C)C)CC2)n1C | 1980
41 | COC(=O)c1c(-c2ccc(F)cc2)c(-c2ccncc2)c2n1CCC2C (centres undefined) | 208
42 | COC(=O)c1c(-c2ccc(F)cc2)c(-c2ccncc2)c(NCCNC(=O)OC(C)(C)C)n1C | 1640

Row | SMILES | IC50 [nM]
43 | CN(C)C(=O)c1c(-c2ccc(F)cc2)c(-c2ccncc2)c(N2CCNCC2)n1C | 120
44 | CCCCNCc1c(-c2ccncc2)c(-c2ccc(F)cc2)cn1C | 1080
45 | COC(=O)c1c(-c2ccc(F)cc2)c(-c2ccncc2)c(N2CCC(NC(=O)OC(C)(C)C)C2)n1C (centres undefined) | 1660
46 | CNC(=O)c1c(-c2ccc(F)cc2)c(-c2ccncc2)cn1C | 1480
47 | O=C1OCCn2cc(-c3ccncc3)c(-c3ccc(F)cc3)c21 | 160
48 | COC(=O)c1c(-c2ccc(F)cc2)c(-c2ccncc2)c(NCCNC(C)=O)n1C | 1690
49 | COC(=O)c1c(-c2ccc(F)cc2)c(-c2ccncc2)c(N(C)CCN2CCSCC2)n1C | 183
50 | COC(=O)c1c(-c2ccc(F)cc2)c(-c2ccncc2)c(NC(C)=O)n1C | 1490
51 | Cn1cc(-c2ccncc2)c(-c2ccc(F)cc2)c1C#N | 171
52 | C[C@H](Nc1nccc(-c2c[nH]cc2-c2ccc(F)cc2)n1)c1ccccc1 | 3
53 | CCCc1c(-c2ccnc(N[C@@H](C)COC)n2)c(-c2ccc(F)cc2)cn1C(=O)OC(C)(C)C | 50
54 | CN(CCN1CCOCC1)c1c(-c2ccncc2)c(-c2ccc(F)cc2)cn1C | 117
55 | COC(=O)c1c(-c2cccc(F)c2)c(-c2ccncc2)cn1C | 64
56 | CCOC(=O)c1c(-c2ccc(F)cc2)c(-c2ccncc2)c(Br)n1C | 86
57 | CCOC(=O)c1c(-c2ccc(F)cc2)c(-c2ccncc2)cn1C | 125
58 | COC(=O)c1c(-c2ccc(F)cc2)c(-c2ccncc2)c(NCCN2CCCC2)n1C | 1390
59 | CCOC(=O)c1[nH]cc(-c2ccc(F)cc2)c1-c1ccncc1 | 145
60 | CCOC(=O)c1c(-c2ccc(F)cc2)c(-c2ccncc2)c(CCCO)n1C | 186
61 | COC(=O)c1c(-c2ccc(F)cc2)c(-c2ccncc2)cn1CCO | 692
62 | CC(O)c1c(-c2ccc(F)cc2)c(-c2ccncc2)cn1C (centres undefined) | 1450

test system: MAPK14 (BALB/cJ mice); test: In vivo Inhibition of LPS-induced TNF-alpha Production; conditions: dose or concentration not given here

Row | SMILES | inhibition [%]
63 | COC(=O)CN1CCN(c2c(-c3ccncc3)c(-c3ccc(F)cc3)c(C(=O)OC)n2C)CC1 | 26
64 | Cn1cc(-c2ccc(F)cc2)c(-c2ccncc2)c1N1CCNCC1 | 75
65 | COC(=O)C1Cn2cc(-c3ccncc3)c(-c3ccc(F)cc3)c2C1=O (centres undefined) | 44.7
66 | COC(=O)c1c(-c2cccc(F)c2)c(-c2ccncc2)c(N2CCNCC2)n1C | 49
67 | CCCc1[nH]cc(-c2ccc(F)cc2)c1-c1ccnc(N[C@@H](C)COC)n1 | -35
68 | CCOC(=O)c1[nH]cc(-c2ccncc2)c1-c1cccc(C(F)(F)F)c1 | -8
69 | Fc1ccc(-c2cn3c(c2-c2ccncc2)CN(Cc2ccccc2)CC3)cc1 | -6
70 | COC(=O)c1c(-c2ccc(F)cc2)c(-c2ccncc2)cn1C(C)=O | -32.1
71 | CN(C)C(=O)c1c(-c2ccc(F)cc2)c(-c2ccncc2)c(Br)n1C | -41
72 | COC(=O)c1c(-c2ccc(F)cc2)c(-c2ccncc2)c(NCCCN2CCOCC2)n1C | 64
73 | COC(=O)c1c(-c2ccc(F)cc2)c(-c2ccncc2)cn1CCN(C)C | -32
74 | COC(=O)c1c(-c2ccc(F)cc2)c(-c2ccncc2)c(NCCN2CCNCC2)n1C | 77
75 | CCCc1c(-c2ccnc(N[C@@H](C)c3ccccc3)n2)c(-c2ccc(F)cc2)cn1C(=O)OC(C)(C)C | -79
76 | CC(=O)N1CCN(c2c(-c3ccncc3)c(-c3ccc(F)cc3)c(-c3nnco3)n2C)CC1 | 19
77 | COC(=O)C1CCn2c(I)c(-c3ccncc3)c(-c3ccc(F)cc3)c2C1=O (centres undefined) | 15
78 | Cn1c(CO)c(-c2ccc(F)cc2)c(-c2ccncc2)c1N1CCN(C(=O)OC(C)(C)C)CC1 | 83
79 | COC(=O)c1c(-c2ccc(F)cc2)c(-c2ccncc2)c(-c2ccncc2)n1C | 51
